From patent US10386360B2, “Bio-microelectromechanical system transducer and associated methods” (University of Central Florida Research Foundation, Inc., priority 2009, dated 2019) come the findings set out here.

In this series the test system is contractile myotubes. Put plainly: Veratridine added to electrically stimulated myotubes on microcantilevers, AFM laser detection. Format: cell-based, rat. On the set-up: dose or concentration left out as unconfirmed. The following applies: myotubes 10 days in culture, 1 Hz stimulus, veratridine final concentration. Here is the method:
Skeletal muscle was dissected from the hind limb thighs of a rat fetus at embryonic day 18 (Charles River Laboratories, Wilmington, Mass.) according to a previously published protocol with some modification. Tissue samples were collected in a sterile 15-ml centrifuge tube containing 1 ml of calcium and magnesium free phosphate buffered saline (PBS). Tissue samples were enzymatically disassociated using 3 ml of 0.05% of trypsin-EDTA (Invitrogen, Carlsbad, Calif.) solution for 60 min in a 37° C. water bath with agitation of 100 rpm. After 60 min, the trypsin solution was removed and 6 ml of L15 media (Invitrogen, Carlsbad, Calif.) containing 10% fetal bovine serum (FBS) was added to terminate the trypsin action. The tissue was then mechanically triturated using a sterile narrow bore Pasteur pipette, allowed to settle for 3 min, and transferred to a 15-ml centrifuge tube. This was repeated three times. The dissociated tissue was then centrifuged at 300 g for 10 minutes at 4° C. on 6 ml of a 4% (wt/vol) cushion of bovine serum albumin (BSA). The pellet was resuspended in 10 ml L15+10% FBS and plated in uncoated 100-mm Petri dishes for 20-30 min depending on the amount of tissue, to allow contaminating fibroblasts to settle out. After 20-30 minutes the supernatant was layered on 6 ml of a 4% BSA cushion, and centrifuged at 300 g for 10 min at 4° C. […]

“Also recorded” adds a separate entry of the source.

For `COc1ccc(C(=O)O[C@H]2CC[C@@]3(C)[C@@H]4CC[C@H]5[C@]6(O)C[C@H](O)[C@@]7(O)[C@@H](CN8C[C@@H](C)CC[C@H]8[C@@]7(C)O)[C@]6(O)C[C@@]53O[C@]24O)cc1OC` [veratridine], the “ability to contract after the initial tetanic contraction” value is “lost the ability to contract further; also recorded: lost the ability to further contract”.
